For the assay, the system named is 171881-019-R-J1-PDC complex spheroid viability. Put plainly: Anticancer human tumor 171881-019-R-J1-PDC patient-derived invasive breast carcinoma cell line growth inhibition. The settings on record: for viability, T/C: stronger effect = lower value. Put shortly: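 Multicellular complex spheroids of tumor cells with human endothelial cells (HUVEC) and mesenchymal stem cells; the LSD1 inhibitor iadademstat was combined with standard-of-care or investigational agents. Top concentration at or near clinical Cmax, half-log dilutions; final DMSO ≤0.25%.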

The mark [1] stands for this setting: curve of first compound, second compound 0.1 µM.
Where [2] appears, read: curve of first compound, second compound 0.316 µM.
[3] abbreviates: curve of first compound, second compound 1 µM.
[4] abbreviates: curve of first compound, second compound 3.16 µM.
Setting [5] is: curve of first compound, second compound 10 µM.
The mark [6] stands for this setting: second compound 0.1 µM, first compound 0.00316 µM.
Setting [7] is: second compound 0.1 µM, first compound 0.01 µM.
The mark [8] stands for this setting: second compound 0.1 µM, first compound 0.0316 µM.
The mark [9] stands for this setting: second compound 0.1 µM, first compound 0.1 µM.
Setting [10] is: second compound 0.316 µM, first compound 0.00316 µM.
Setting [11] is: second compound 0.316 µM, first compound 0.01 µM.
Where [12] appears, read: second compound 0.316 µM, first compound 0.0316 µM.
[13] abbreviates: second compound 0.316 µM, first compound 0.1 µM.
Setting [14] is: second compound 1 µM, first compound 0.00316 µM.
[15] abbreviates: second compound 1 µM, first compound 0.01 µM.
Setting [16] is: second compound 1 µM, first compound 0.0316 µM.
Where [17] appears, read: second compound 1 µM, first compound 0.1 µM.
Setting [18] is: second compound 3.16 µM, first compound 0.00316 µM.
Where [19] appears, read: second compound 3.16 µM, first compound 0.01 µM.
[20] abbreviates: second compound 3.16 µM, first compound 0.0316 µM.
[21] abbreviates: second compound 3.16 µM, first compound 0.1 µM.
The mark [22] stands for this setting: second compound 10 µM, first compound 0.00316 µM.
[23] abbreviates: second compound 10 µM, first compound 0.01 µM.
[24] abbreviates: second compound 10 µM, first compound 0.0316 µM.
The mark [25] stands for this setting: second compound 10 µM, first compound 0.1 µM.
[26] abbreviates: second compound 0.1 µM, first compound 0.316 µM.
Where [27] appears, read: second compound 0.1 µM, first compound 1 µM.
The mark [28] stands for this setting: second compound 0.316 µM, first compound 0.316 µM.
[29] abbreviates: second compound 0.316 µM, first compound 1 µM.
The mark [30] stands for this setting: second compound 1 µM, first compound 0.316 µM.
Where [31] appears, read: second compound 1 µM, first compound 1 µM.
Where [32] appears, read: second compound 3.16 µM, first compound 0.316 µM.
Setting [33] is: second compound 3.16 µM, first compound 1 µM.
[34] abbreviates: second compound 10 µM, first compound 0.316 µM.
The mark [35] stands for this setting: second compound 10 µM, first compound 1 µM.

A word on the viability, T/C: it is the ratio of treated to control. As a reminder, the IC50 is the point on the concentration scale where inhibition reaches its midpoint.

Several values for one entry are separate records, joined by “and”; a condition that tells them apart may be missing. Equal entries are not always repeated.
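Note: spheroids exposed to agents for 7 days after 3 days growth.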

Regarding `COc1ccc([C@@H](O)c2cc(-c3ncnc4cc(N5CCOCC5)ccc34)c(F)cc2Cl)nn1`, the viability, T/C runs as follows: (compound 0.0316 µM) 101% and 98.9%; (compound 0.1 µM) 128% and 95.7%; (compound 0.316 µM) 98.3% and 76%; (compound 1 µM) 38.5% and 29.6%; (compound 3.16 µM) 7.38% and 8.2%; (compound 10 µM) 6.64% and 11.3%. Further, the IC50 (curve of compound) was 798 nM and 599 nM.

Turning to `Cn1ncnc1C1c2n[nH]c(=O)c3cc(F)cc(c23)NC1c1ccc(F)cc1` (stereo unspecified) + NC1CCC(NC2CC2c2ccccc2)CC1, the IC50 under setting [1] is more than 100 nM; the IC50 under setting [2] was more than 100 nM; the IC50 under setting [3] was more than 100 nM; the IC50 under setting [4] is more than 100 nM; the half-maximal inhibitory concentration (IC50) under setting [5] was more than 100 nM. Moreover, the viability, T/C runs as follows: (second compound 0.1 µM, first compound 0.000316 µM) 92.3%; (second compound 0.1 µM, first compound 0.001 µM) 79.1%; under setting [6], 88.4%; under setting [7], 79.3%; under setting [8], 81.4%; under setting [9], 85.7%. Besides, the viability, T/C (second compound 0.316 µM, first compound 0.000316 µM) is 82.1%; the viability, T/C (second compound 0.316 µM, first compound 0.001 µM) is 76.3%; the viability, T/C under setting [10] was 69.3%; the viability, T/C under setting [11] is 71.5%; the viability, T/C under setting [12] is 81.8%; the viability, T/C under setting [13] was 76.7%. The viability, T/C runs as follows: (second compound 1 µM, first compound 0.000316 µM) 78.9%; (second compound 1 µM, first compound 0.001 µM) 85.5%; under setting [14], 70.7%; under setting [15], 71.7%; under setting [16], 73.5%; under setting [17], 79.9%. Moreover, the viability, T/C (second compound 3.16 µM, first compound 0.000316 µM) is 90%; the viability, T/C (second compound 3.16 µM, first compound 0.001 µM) was 78.8%; the viability, T/C under setting [18] is 59.2%; the viability, T/C under setting [19] is 86.7%; the viability, T/C under setting [20] is 78.8%; the viability, T/C under setting [21] is 85.7%. The viability, T/C reads like this: (second compound 10 µM, first compound 0.000316 µM) 73%; (second compound 10 µM, first compound 0.001 µM) 84.5%; under setting [22], 71%; under setting [23], 76.3%; under setting [24], 72.6%; under setting [25], 88.6%.

In the case of `CC1COCCN1c1cc(C2(S(C)(=N)=O)CC2)nc(-c2ccnc3[nH]ccc23)n1` (stereo unspecified) + NC1CC1c1ccc(-c2cccc(O)c2)cc1, the IC50 under setting [1] amounted to 1370 nM; the IC50 under setting [2] stood at 1450 nM; the IC50 under setting [3] stood at 1470 nM; the concentration for half-maximal inhibition (IC50) under setting [4] was 1410 nM; the IC50 under setting [5] turned out to be 1150 nM. The viability, T/C under setting [8] was 103%; the viability, T/C under setting [9] was 102%; the viability, T/C under setting [26] was 97.9%; the viability, T/C under setting [27] is 59.6%; the viability, T/C (second compound 0.1 µM, first compound 3.16 µM) was 22.3%; the viability, T/C (second compound 0.1 µM, first compound 10 µM) is 9.45%. Also, the viability, T/C under setting [12] is 106%; the viability, T/C under setting [13] was 103%; the viability, T/C under setting [28] was 99.3%; the viability, T/C under setting [29] was 61.1%; the viability, T/C (second compound 0.316 µM, first compound 3.16 µM) is 24.7%; the viability, T/C (second compound 0.316 µM, first compound 10 µM) was 9.56%. The viability, T/C is 103% under setting [16]; 104% under setting [17]; 91.1% under setting [30]; 63.5% under setting [31]; 24.3% (second compound 1 µM, first compound 3.16 µM); 9.48% (second compound 1 µM, first compound 10 µM). For the same compound, the viability, T/C was 99.5% under setting [20]; 104% under setting [21]; 96.9% under setting [32]; 61.5% under setting [33]; 21.8% (second compound 3.16 µM, first compound 3.16 µM); 8.64% (second compound 3.16 µM, first compound 10 µM). In addition, the viability, T/C under setting [24] was 86.4%; the viability, T/C under setting [25] was 87.7%; the viability, T/C under setting [34] is 81.6%; the viability, T/C under setting [35] was 53.3%; the viability, T/C (second compound 10 µM, first compound 3.16 µM) was 21.1%; the viability, T/C (second compound 10 µM, first compound 10 µM) is 8.98%.

For the compound `CC1COCCN1c1cc(-c2ccnn2C)c2ccnc(-c3ccn[nH]3)c2n1` (stereo unspecified) + NC1CCC(NC2CC2c2ccccc2)CC1, the IC50 amounted to 10.2 nM under setting [1]; 9.5 nM under setting [2]; 10.5 nM under setting [3]; 13.6 nM under setting [4]; 13.7 nM under setting [5]. The viability, T/C was 57% under setting [6]; 50.7% under setting [7]; 18.8% under setting [8]; 8.26% under setting [9]; 6.58% under setting [26]; 5.76% under setting [27]. Moreover, the viability, T/C under setting [10] is 63.3%; the viability, T/C under setting [11] is 49.5%; the viability, T/C under setting [12] was 19%; the viability, T/C under setting [13] is 8.72%; the viability, T/C under setting [28] is 6.3%; the viability, T/C under setting [29] was 6.44%. Further, the viability, T/C is, setting by setting: under setting [14], 65.3%; under setting [15], 51.2%; under setting [16], 24.1%; under setting [17], 10.6%; under setting [30], 6.7%; under setting [31], 7.53%. Moreover, the viability, T/C is 70.8% under setting [18]; 58.9% under setting [19]; 25.7% under setting [20]; 9.54% under setting [21]; 7.15% under setting [32]; 6.61% under setting [33]. The viability, T/C was 70% under setting [22]; 58.3% under setting [23]; 27.1% under setting [24]; 10.1% under setting [25]; 7.47% under setting [34]; 10.2% under setting [35].

In the case of `CC(C)CC(NC(=O)C(Cc1ccccc1)NC(=O)c1cnccn1)B(O)O` (stereo unspecified), the viability, T/C (compound 0.000316 µM) was 9.71% and 22.8%; the viability, T/C (compound 0.001 µM) was 1.12% and 20.1%; the viability, T/C (compound 0.00316 µM) is 0.41% and 17.8%; the viability, T/C (compound 0.01 µM) is 0.25% and 10.1%; the viability, T/C (compound 0.0316 µM) is 0.24% and 12%; the viability, T/C (compound 0.1 µM) was 0.17% and 6.28%. Further, the 50% inhibitory concentration (IC50) (curve of compound) was less than 0.316 nM.

On to `Nc1ncn(C2CC(O)C(CO)O2)c(=O)n1` (stereo unspecified), for which the viability, T/C runs as follows: (compound 0.00316 µM) 109% and 97.4%; (compound 0.01 µM) 122% and 97.5%; (compound 0.0316 µM) 128% and 95.1%; (compound 0.1 µM) 130% and 93.4%; (compound 0.316 µM) 120% and 91.2%; (compound 1 µM) 105% and 81.2%. The IC50 (curve of compound) is more than 1000 nM.

The record behind these values is PubChem BioAssay AID1918932 (Molecular Pharmacology Branch, DTP, NCI, 2023).
